One assay concerns myelin. In words: Spinal cord demyelination (MBP staining and Western) in EAE mice. It counts as in vivo, C57BL/6J mice. As to conditions: GSNO 1 mg/kg/day or FeTPPS 30 mg/kg/day i.p. How it is done:
Western immunoblot analysis was performed by standard method using 50 μg of cell lysates. Following the SDS-PAGE electrophoresis, proteins were transferred from the gel onto the Polyvinylidene fluoride membrane (GE Healthcare Life Sciences, Marlborough, Mass.). […]
EAE was induced as described previously (Nath et al., 2009). […] The group size was determined by power analysis based on our previous data (Nadi et al., 2009). […] Clinical signs of EAE were scored in animal facility in a blinded fashion to experimenter between 2 and 4 pm daily by examiners blinded to experimental treatments using the following scale: 0=no clinical signs of disease; 1=limp tail or waddling gait with tail tonicity; 2=waddling gait with limp tail (ataxia); 2.5=ataxia with partial limb paralysis; 3=full paralysis of one limb; 3.5=full paralysis of one limb with partial paralysis of second limb; 4=full paralysis of two limbs; 4.5=moribund stage; 5=death. […]
Animals were anesthetized and fixed with cardiac perfusion of 4% paraformaldehyde (Nath et al., 2004). […] To assess the status of myelin, the sections were stained with antibody specific to MBP and detected with secondary antibody conjugated with immunofluorescent analysis. […]

Assay [1] deals with CD4+ T cells (TH1, TH2, TH17, Treg). Kind of assay: Fluorescence flow cytometry of CD4+ T cell subsets in spinal cords of EAE mice. Format: in vivo, C57BL/6 mice. As to conditions: EAE mice at peak of disease, 1 mg/kg/day. The method, then:
Female C57BL/6 mice of 8-12 weeks of age, purchased from Jackson Laboratory, were provided with food and water ad libitum and were kept in pathogen free animal care facility of Medical University of South Carolina (MUSC) throughout the study. All procedures were conducted in accordance with accepted standards of humane care as approved by the Institutional Animal Care and Use Committee (Approved number: AR #1644). EAE was induced as described previously (Nath et al., 2009). Briefly, mice were immunized subcutaneously in the flank regions with MOG35-55 peptide (MOG; 200 μg; Peptide International) emulsified (1:1) in 100 ul complete Freund's adjuvant (CFA) on day 0 and day 7. Additionally, 300 ng of Pertussis toxin (Sigma-Aldrich, St. Louis, Mo.) was given on day 0 and day 2 by i.p. injection. Pertussis toxin used as per the standardized protocol reported by us and other investigators for the induction of EAE (Nath et al., 2009). Similarly, healthy control group received subcutaneous injection of PBS and CFA emulsion on day 0 and day 7. Clinical signs of EAE were scored by examiners blinded to experimental treatments using the following scale: 0=no clinical signs of disease; 1=piloerection and sluggish; 2=limp tail (ataxia); 2.5=ataxia with partial hind limb paralysis; 3=full paralysis of hind limb; 3.5=full paralysis of hind limb with paralysis of one fore limb; 4=full paralysis of two limbs; 4.5=moribund stage; 5=death. […] The drug treatments were continued till the termination of the study (day 41 post immunization). EAE animals without drug treatment received PBS. Likewise, healthy controls received vehicle.
Fluorescence flow cytometry analysis for each subset of CD4+ T cells (TH1, TH2, TH17, CD4+CD25+ FOXP3+ Treg, and CD4+CD25+ FOXP3− Treg) were performed based on our previous report with modification (Nath et al., 2004). Briefly, control mice, EAE mice. EAE mice treated with GSNO. […] The isolated CD4+ T cells were then resuspended with complete RPMI-media in 12-well plates (5×10^6 cells' 2 ml per well) containing MOG peptide (25 μg/ml) for 48 hrs. Following the centrifugation, the resulted supernatants were collected for ELISA for CD4+ subset specific cytokines (see below). The cell pellets were washed with cell staining solution (ebioscience, Waltham, Mass. USA) and stained with fluorescence labeled antibody specific to IFN-γ for TH1. IL-4 for TH2, IL-17 for TH17, CD25+ for total Treg. CD25+ and FOXP3+ for FOXP3+ Treg, and CD25+ and FOXP3− for FOXP3-Tregs (ebioscience, Waltham, Mass., USA). The cells were counted and analyzed using Beackman Coulter instrument (Beckman Coulter, Inc., Brea, Calif., USA).
A general note: In flow cytometry, cells or beads pass a laser one at a time.

The values that follow come from patent US10925858B2, “S-nitrosoglutathione (GSNO) and GSNO reductase inhibitors for use in therapy” (MUSC FOUNDATION FOR RESEARCH DEVELOPMENT, priority 2017, dated 2021).

The structures appear in SMILES notation.

For `Cl.O=S(=O)([O-])c1ccc(-c2c3nc(c(-c4ccc(S(=O)(=O)O)cc4)c4ccc([nH]4)c(-c4ccc(S(=O)(=O)O)cc4)c4nc(c(-c5ccc(S(=O)(=O)O)cc5)c5ccc2[nH]5)C=C4)C=C3)cc1.[Fe]` [FeTPPS, 5,10,15,20-Tetrakis(4-sulfonatophenyl)porphyrinato Iron (III), Cl, reference compound], the “protection of myelin in the spinal cord” value in the assay with myelin is “protected myelin”.
As for `N[C@@H](CCC(=O)N[C@@H](CSN=O)C(=O)NCC(=O)O)C(=O)O` [GSNO, S-nitrosoglutathione], the “protection of myelin in the spinal cord” value in the assay with myelin is reported as “protected myelin”. Moreover, in assay [1], the “number of CD4+ IFN-γ+ (TH1) cells in spinal cords” value is on record as “no obvious effect”, the “number of CD4+ IL-17 (TH17) cells in spinal cords” value is recorded as “significantly decreased”, the “number of CD4+CD25+ FOXP3+ Treg cells in spinal cords” value is on record as “without altering” and the “number of CD4+CD25+ FOXP3− Treg cells in spinal cords” value is on record as “significantly increased”. In assay [1], the “number of total Treg cells (CD4+CD25+) in spinal cords” value was “increased”.
In the case of `Cc1cc(C(N)=O)ccc1-n1c(CCC(=O)O)ccc1-c1ccc(-n2ccnc2)cc1` [N6022, reference compound], in assay [1], the “number of CD4+ IFN-γ+ (TH1) cells in spinal cords” value was “reduced”, the “number of CD4+ IL-17 (TH17) cells in spinal cords” value is recorded as “reduced”, the “number of CD4+CD25+ FOXP3+ Treg cells in spinal cords” value is given as “increased” and the “number of CD4+CD25+ FOXP3− Treg cells in spinal cords” value is “increased”. The “number of TH2 cells in the CNS” value in assay [1] is on record as “increased”.
